Measurements published in ChEMBL document CHEMBL1944552, “Pharmacophore-based discovery of a novel cytosolic phospholipase A(2)α inhibitor” (Bioorg Med Chem Lett, 2012).

How the values were obtained:
[1] = Aqueous solubility of the compound at >10 uM; type: physicochemical; details: buffer
[2] = Inhibition of human recombinant His-tagged cPLA2alpha expressed in baculovirus-infected Sf9 cells assessed as residual activity at 10 uM after 1 hr by RP-HPLC analysis
[3] = Inhibition of cPLA2alpha
[4] = Inhibition of human recombinant His-tagged cPLA2alpha expressed in baculovirus-infected Sf9 cells after 1 hr by RP-HPLC analysis
[5] = Inhibition of cPLA2alpha-mediated [3H]-arachidonic acid release in Ca2+ ionophore A23187-stimulated human monocytes preincubated for 15 mins prior Ca2+ ionophore A23187 stimulation measured after 5 mins by scintillation counting

Row | Compound | solubility [1] | Activity [2] | also measured
1 | Cn1ccnc1SCCCCOc1ccc(OCC(=O)COc2ccc(C(=O)O)cc2)cc1 |  |  | IC50 [3]: 63 µM
2 | O=C(COc1ccc(SCCCCCc2ccccc2)cc1)COc1ccc(C(=O)O)cc1 |  |  | IC50 [3]: 0.004 µM
3 | O=C(COc1ccc(C(=O)O)cc1)COc1ccc(C(=O)NCCCCc2ccccc2)cc1 |  |  | IC50 [3]: 20 µM
4 | O=C(COc1ccc(SCCCCSc2nccs2)cc1)COc1ccc(C(=O)O)cc1 |  |  | IC50 [3]: 0.76 µM
5 | CCCCCCCCCCCCCCCCOc1ccc(C(=O)O)cc1NC(=O)/C(=N/O)C(C)=O |  |  | IC50 [4]: 4 µM; IC50 [5]: 5 µM
6 | Cc1cc(-c2ccc(/N=N/c3c(S(=O)(=O)O)cc4cc(S(=O)(=O)O)cc(N)c4c3O)c(C)c2)ccc1/N=N/c1ccc2c(S(=O)(=O)O)ccc(N)c2c1O | Insoluble | 87.5% | 
7 | CCCCCCCCCCCCCCCc1cc(=O)n(-c2ccc(NC(=O)/C=C/C(=O)O)cc2)n1C | Insoluble | 92.6% | 
8 | COc1cc(/N=N/c2ccc3cc(S(=O)(=O)O)cc(S(=O)(=O)O)c3c2)ccc1/N=N/c1ccc(NC(=O)c2ccc(NC(=O)c3ccccc3)cc2)cc1C | Insoluble | 62.7% | 
9 | CN(CCc1ccccc1)C(=O)CSc1ccc(OCC(=O)COc2ccc(C(=O)O)cc2)cc1 |  |  | IC50 [3]: 34 µM
10 | Cc1cc(N)ccc1/N=N/c1ccc(/N=N/c2ccc(/N=N/c3ccc4cc(S(=O)(=O)O)cc(S(=O)(=O)O)c4c3)c(C)c2)c(C)c1 | Insoluble | 81.9% | 
11 | CCCCCCCCCCCCCCCCOc1ccc(S(=O)(=O)N/N=c2/sc3ccc(S(=O)(=O)O)cc3n2C)cc1C(=O)O | Insoluble | 70.2% | 

The next lines start with results.

Row | solubility [1] | Compound | Activity [2] | also measured
12 | Insoluble | CCCCCCCCCCCCCCCCOc1ccc(C(=O)O)cc1 | 88.4% | 
13 | Insoluble | CCCCCCCCCCCCCCCCCC1=NCCN1CS(=O)(=O)O | 94.7% | 
14 | Insoluble | CCCCCCCCCCCCCCCC1=NN(c2ccc(S(=O)(=O)O)cc2)C(=O)C1/N=N/c1ccccc1 (centres undefined) | 77.1% | 
15 | Insoluble | CCCCCCCCCCCCCCCCCC1=NCCN1CCN(CS(=O)(=O)O)CS(=O)(=O)O | 106% | 
16 | Insoluble | CCCCCCCCCCCCCCCCN(C)c1ccc(S(=O)(=O)O)cc1[N+](=O)[O-] | 61.4% | 
17 | Insoluble | CCCCCCCCCCCCCCCc1nnc(SCC(=O)O)[nH]1 | 85.1% | 
